Measured values taken from PubChem BioAssay AID2060500 (Molecular Pharmacology Branch, DTP, NCI, 2025).
Values joined by “and” are separate entries in the source; they are usually repeats but may differ in a detail not shown here. Equal entries are not always repeated.

System: 596521-263-R-J1-PDC complex spheroids, viability % of control
Experiment: Anticancer human tumor 596521-263-R-J1-PDC patient-derived soft tissue sarcoma cell line growth inhibition [GQUAD]
Details: for viability, T/C: stronger effect = lower value
Source text: DNA G-quadruplex Stabilizer Agents in Combinations in Complex Spheroids
A high-throughput screen of multi-cell type tumor spheroids was designed to identify active combinations of DNA G-quadruplex stabilizer agents and targeted small molecules. Complex spheroids include a stromal component modeled by human endothelial cells (HUVEC) and fibroblasts modeled by human mesenchymal stem cells (MSCs). The concentration ranges selected for each drug and investigational agent were based upon clinically achievable concentrations if the clinical Cmax of the agent was known.
Compounds. The drugs and investigational agents: pidnarulex (CX-5461; NSC782164), APTO-253 (NSC789042), BRACO-19 (NSC847499), peposertib (NSC802822), ceralasertib (NSC780249), elimusertib (NSC800525), camonsertib (NSC841442), AZD-1390 (NSC803789), olaparib (NSC753686), talazoparib (NSC767125), ART-558 (NSC835418), sotorasib (NSC818433), MRTX-1133 (NSC836407), SN-38 (NSC673596), topotecan (NSC609699), etoposide (NSC141540), doxorubicin (NSC123127), gemcitabine (NSC613327), 5-fluorouracil (NSC19893), paclitaxel (NSC125973), vemurafenib (NSC761431), panobinostat (NSC761190), R-306465 (JNJ-16241199; NSC773264), adavosertib (NSC754352), TP-3654 (NSC805149), carboplatin (NSC241240), KSQ-4279 (NSC840948), and staurosporine (NSC755774) were obtained from the National Cancer Institute (NCI) Developmental Therapeutics Program Chemical Repository (34). The FDA-approved anticancer drug set is available from the NCI Developmental Therapeutics Program. […] The stock solutions were prepared in dimethyl sulfoxide (DMSO, Sigma-Aldrich, St. Louis, MO, cat. D2650) at 800-fold the tested concentration and stored at -70 degrees C prior to their use. All drugs and investigational agents were tested over a range starting from a high concentration at or near the clinical Cmax and decreasing in half-log increments. If the clinical Cmax for an agent had not been determined, the highest concentration tested was 10 microM.
2.3 Cell Culture. All cells were maintained in an incubator at 37 degrees C and 5% CO2 with 95% humidity. The PDC lines were cultured according to standard operating procedures established by the NCI PDMR. All PDCs were thawed and cultured in Matrigel-coated flasks prepared with a working solution of 1X Ham's F-12 nutrient mix, without supplementation (Invitrogen, cat. 11765054), 100 U/mL penicillin-streptomycin (Invitrogen, cat. 15140122), and 2.5% Matrigel (Corning Inc., cat. 354248) for the first three passages. The 857933-349-R-J2-PDC line was cultured in 6C/Colon 1B media, which includes advanced DMEM/F-12 (Thermo Fisher Scientific, cat. 12634028), 10 mM HEPES (Thermo Fisher Scientific, cat. 15630080), 1X GlutaMAX supplement (Thermo Fisher Scientific, cat. 35050061), 0.1 mg/mL primocin (InvivoGen, cat. ant-pm-2), 10% defined fetal bovine serum, heat inactivated (HyClone Laboratories Inc., cat. SH30070.03HI), 50% L-WRN conditioned media (ATCC, cat. CRL-3276), 1.25 mM N-Acetyl-L-cysteine (Sigma-Aldrich, cat. A9165), 10 mM nicotinamide (Sigma-Aldrich, cat. N0636), 1X B-27 supplement (Thermo Fisher Scientific, cat. 17504044), 1X N-2 supplement (Thermo Fisher Scientific, cat. 17502048), 10 microM Y-27632 dihydrochloride (Tocris Bioscience, cat. 1254), and 50 ng/mL human EGF recombinant protein (Thermo Fisher Scientific, cat. PHG0311). The 485176-168-R4-J1-PDC line was cultured in Panc media, which includes all 6C/Colon 1B media components plus 100 ng/mL human FGF-10 (Thermo Fisher Scientific, cat. 100-26), 500 nM SB-431542 (Selleckchem, cat. S1067), and gastrin (Tocris, cat. 3006).
[…]
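Note: spheroids exposed to drugs for 7 days before viability reading.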

Compound	viability, T/C (compound 0.0316 µM)	viability, T/C (compound 0.1 µM)	viability, T/C (compound 0.316 µM)	viability, T/C (compound 1 µM)	viability, T/C (compound 3.16 µM)	viability, T/C (compound 10 µM)	IC50 (curve of compound)	IC50 (compound alone, run of 04/16/2024) [nM]	IC50 (compound alone, run of 04/22/2024) [nM]	viability, T/C (compound 0.000999 µM)	viability, T/C (compound 0.00316 µM)	viability, T/C (compound 0.00999 µM)	viability, T/C (compound 0.0999 µM)
COc1cc(C2c3cc4c(cc3C(OC3OC5COC(C)OC5C(O)C3O)C3COC(=O)C23)OCO4)cc(OC)c1O (stereo unspecified)	107% and 103% (2×)	87% and 88.9% and 88.6%	87.5% and 92% and 89.4%	60.7% and 62.7% and 57.5%	58.4% and 54.6% and 68.8%	43.3% and 45.5% and 49.7%	5480 nM and 4380 nM and > 10000 nM	–	–	–	–	–	–
COc1ccc([C@@H](O)c2cc(-c3ncnc4cc(N5CCOCC5)ccc34)c(F)cc2Cl)nn1	102% and 104% and 98.4%	96.8% and 88% and 99.3%	89.7% and 79.9% and 93.3%	77.9% and 79.6% and 88.5%	66.9% and 63.6% and 80%	51% and 47.4% and 51.9%	> 10000 nM and 9830 nM	–	–	–	–	–	–
COc1cccc2c1C(=O)c1c(O)c3c(c(O)c1C2=O)CC(O)(C(=O)CO)CC3OC1CC(N)C(O)C(C)O1 (stereo unspecified)	93% and 105% and 97.4%	74.8% and 74.5% and 88.6%	63.1% and 58% and 65.8%	58.1% and 54.2% and 56.5%	29.4% and 28.7% and 29.6%	4.46% and 3.41% and 4.53%	1060 nM and 723 nM and 1130 nM	–	–	–	–	–	–
COc1ncnc(C2CC2)c1-c1ncc2cnn(Cc3ccc(-c4nc(C(F)(F)F)cn4C(C)C)cc3)c2n1	98.6% and 108% and 92.8%	105% and 94.8% and 99.3%	97.8% and 85.6% and 98.5%	100% and 65.5% and 81.5%	99.2% and 28.8% and 94.3%	–	> 10000 nM and 1580 nM	–	–	–	–	–	–
Cc1[nH]c2ccc(F)cc2c1-c1nc2c3cccnc3c3ncccc3c2[nH]1	102% [middle of 12 runs]	102% [middle of 12 runs]	101% [middle of 12 runs]	101% [middle of 12 runs]	93.6% [middle of 12 runs]	85.7% [middle of 12 runs]	–	> 10000	> 10000	–	–	–	–
Cc1[nH]c2ccccc2c1CCNCc1ccc(/C=C/C(=O)NO)cc1	96.4% and 54% and 57.8%	–	–	–	–	–	> 316 nM and 33.7 nM and 49.9 nM	–	–	101% and 103% and 95.3%	90.3% and 84.7% and 95.6%	96.9% and 70% and 80.2%	101% and 27.6% and 35.7%
Cc1cccc(N(C)C(=O)C2C(O)CCN2c2nc(C)cc(C(F)(F)F)c2C#N)c1 (stereo unspecified)	113% and 94.7% and 106%	103% and 98.2% and 94.6%	95.1% and 106% and 98.1%	101% and 98.4% and 112%	89.7% and 108% and 114%	91.4% and 96.3% and 101%	> 10000 nM	–	–	–	–	–	–
Cc1cnc(CNC(=O)c2c(=O)c3ccc(N4CCCN(C)CC4)nc3n3c2sc2ccccc23)cn1	99% [middle of 12 runs]	93.1% [middle of 12 runs]	80.5% [middle of 12 runs]	68% [middle of 12 runs]	56.4% [middle of 12 runs]	47.9% [middle of 12 runs]	–	–	–	–	–	–	–
Cn1ncnc1[C@H]1c2n[nH]c(=O)c3cc(F)cc(c23)N[C@@H]1c1ccc(F)cc1	94.5% and 86.7% and 93.1%	–	92.8% and 88% and 76.6%	–	–	–	> 316 nM	–	–	92.8% and 91% and 93.5%	93.2% and 98.2% and 100%	93.6% and 94% and 101%	89.3% and 80.8% and 106%
Nc1ccn(C2OC(CO)C(O)C2(F)F)c(=O)n1 (stereo unspecified)	53.5% and 48% and 59.9%	35.8% and 49.4% and 43.2%	45% and 45.2% and 42.6%	42.5% and 40.8% and 52%	42.5% and 38.6% and 49.9%	33.4% and 33.3% and 40.1%	< 31.6 nM and 35.4 nM and 168 nM	–	–	–	–	–	–
O=C(NO)c1cnc(N2CCN(S(=O)(=O)c3ccc4ccccc4c3)CC2)nc1	39.6% and 75% and 74.9%	25.7% and 56.3% and 57.3%	26.8% and 8.85% and 14%	–	–	–	< 31.6 nM and 117 nM and 121 nM	–	–	–	–	–	–
O=C(c1cc(Cc2n[nH]c(=O)c3ccccc23)ccc1F)N1CCN(C(=O)C2CC2)CC1	102% and 96.8% and 103%	95.1% and 97.1% and 87.4%	87.9% and 88.9% and 100%	89.7% and 89.3% and 95.3%	92.5% and 79.6% and 86.6%	68.4% and 67.2% and 66.9%	> 10000 nM	–	–	–	–	–	–
O=c1[nH]cc(F)c(=O)[nH]1	95.6% and 102% and 106%	105% and 100% and 94.9%	105% (2×) and 107%	98.4% and 114% and 99.3%	94.5% and 97.5% and 97.7%	97.2% and 97.8% and 93.8%	> 10000 nM	–	–	–	–	–	–
